Assay results from publication PMC6505380, “An Extensively Humanized Mouse Model to Predict Pathways of Drug Disposition and Drug/Drug Interactions, and to Facilitate Design of Clinical Trials” (Drug Metabolism and Disposition, 2019).

Tests used:
[1] = design: method as in Thijssen et al., 2001; unit not given beside the values; details: man; ref Thijssen et al., 2001; cited from earlier work
[2] = Pharmacokinetics of S-acenocoumarol in 8HUM and CypC4KO mice: effect of sulfaphenazole; type: in vivo, mouse; details: S-acenocoumarol 1 mg/kg oral
Protocol: Mice were administered two daily doses of SJW before receiving a single oral dose of S-acenocoumarol (1 mg/kg). S-acenocoumarol was dissolved in dimethyl sulfoxide (1 mg/ml) and diluted 10-fold in 100 mM potassium phosphate buffer (pH8) or in a solution of sulfaphenazole (9.78 mg/ml) in the same buffer. Compounds were administered to mice at a volume of 10 ml/kg. Blood collection and sample preparation was performed as described above and analytical details are provided in Supplemental Data.
Fig. 6. […] (A) In vitro microsomal stability assay. […] Values show are mean ± S.D.

[3] = biological target: CYP2C9 (Homo sapiens, UniProt P11712); design: pooled rifampicin-treated male and female 8HUM mice (8HUM) or pooled human liver microsomes (HLM); host or cells: liver microsomes: pooled human liver; liver of 8HUM mice carrying human CYP2C9 driven by the albumin promoter; details: man; ref Thijssen et al., 2001; cited from earlier work
Sequence of CYP2C9 (P11712 whole entry): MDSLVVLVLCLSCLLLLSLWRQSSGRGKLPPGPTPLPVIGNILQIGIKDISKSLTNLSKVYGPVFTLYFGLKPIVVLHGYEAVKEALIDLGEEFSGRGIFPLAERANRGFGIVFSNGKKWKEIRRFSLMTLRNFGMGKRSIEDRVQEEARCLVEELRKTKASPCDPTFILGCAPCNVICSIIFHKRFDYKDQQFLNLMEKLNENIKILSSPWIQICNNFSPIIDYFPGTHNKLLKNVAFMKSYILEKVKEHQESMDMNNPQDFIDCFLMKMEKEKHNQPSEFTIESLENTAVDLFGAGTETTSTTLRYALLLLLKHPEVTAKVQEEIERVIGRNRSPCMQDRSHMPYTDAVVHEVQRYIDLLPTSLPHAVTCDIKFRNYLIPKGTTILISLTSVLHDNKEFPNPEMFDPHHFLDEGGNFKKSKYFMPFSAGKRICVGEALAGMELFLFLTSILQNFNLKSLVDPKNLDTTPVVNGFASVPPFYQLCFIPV

[4] = Microsomal stability of S-acenocoumarol; details: 1 μM, 2 mg protein/ml
Protocol: The reaction mixture aliquots were taken at specified time points and mixed with an equal volume of acetonitrile containing warfarin (50 ng/ml) as an internal standard. […] The concentrations of S-acenocoumarol were measured by LC-MS/MS. Chromatographic separation was performed on a Kinetex C18 100 Å column (2.6 μm; 5.0 × 2.1 mm) (Phenomenex) using an injection volume of 10 μl and a run time of 7 minutes. The detector used was a Micromass Quattro Micro mass spectrometer (Waters Corporation) run in electrospray positive ion mode.

CC(=O)C[C@@H](c1ccc([N+](=O)[O-])cc1)c1c(O)c2ccccc2oc1=O [S-acenocoumarol]
AUCR in CYP2C9 extensive versus poor metabolizers [1]: 16.3
AUC ([2]; SJW-pretreated 8HUM mice, coadministered sulfaphenazole): 2008 ± 159 ng·h/mL
AUC ([2]; SJW-pretreated 8HUM mice, vehicle-treated): 230 ± 30 ng·h/mL
AUC ([2]; SJW-pretreated CypC4KO mice): 2520 ± 214 ng·h/mL
fraction metabolized by CYP2C9 [3]: 0.94
Metabolism in liver microsomes ([4]; liver microsomes from CYP2C9 humanized mice): rapidly metabolized
Metabolism in liver microsomes ([4]; microsomes from wild-type, Cyp2cKO, Cyp2c/2d/3a KO, or hepatic P450 reductase-null mice): practically indistinguishable from that in the no cofactor control
